Key:
[1] = SuFEx S-O bond formation: di-sulfonimidoyl fluoride (mixture of diastereomers) + diphenol (1:1), DBU 2.1 equiv, [1+1] macrocyclisation, one pot; details: the molecule shown is the open-chain precursor, MeCN, 20.0 mM, 50.0 °C, 3.0 h
[2] = Enantiospecific SuFEx S-O bond formation: enantiopure di-sulfonimidoyl fluoride + sodium diphenolate (1:1), [1+1] macrocyclisation, one pot; details: the molecule shown is the open-chain precursor, MeCN, 12.5 mM, 60.0 °C, 6.0 h

Cc1ccc(S(=O)(F)=NC(=O)c2ccc(C(=O)N=S(=O)(Oc3ccc(C(C)(C)c4cccc(C(C)(C)c5ccc(O)cc5)c4)cc3)c3ccc(C)cc3)cc2)cc1 (centres unmarked) showed a ring closure, isolated yield ([1]; 25-membered ring) of 74%.

With Cc1ccc(S(=O)(F)=NC(=O)c2ccc(C(=O)N=S(=O)(Oc3ccc(SSc4ccc(O)cc4)cc3)c3ccc(C)cc3)cc2)cc1 (centres unmarked) [3a] the ring closure, isolated yield ([1]; 22-membered ring) was 96%.

In the case of CCC(c1ccc(O)cc1)C(CC)c1ccc(OS(=O)(=NC(=O)c2ccc(C(=O)N=S(=O)(F)c3ccc(C)cc3)cc2)c2ccc(C)cc2)cc1 (centres unmarked) [3b], the ring closure, isolated yield ([1]; 22-membered ring) is reported as 61%.

For Cc1ccc(S(=O)(F)=NC(=O)c2ccc(C(=O)N=S(=O)(Oc3cccc(Oc4cccc(Oc5cccc(O)c5)c4)c3)c3ccc(C)cc3)cc2)cc1 (centres unmarked) [3d], the ring closure, isolated yield ([1]; 23-membered ring) was 67%.

Compound Cc1ccc(S(=O)(F)=NC(=O)c2ccc(C(=O)N=S(=O)(Oc3ccccc3CNCCCCCCNCc3ccccc3O)c3ccc(C)cc3)cc2)cc1 (centres unmarked) [3e] has a ring closure, isolated yield ([1]; 26-membered ring) of 91%.

In the case of Cc1ccc(S(=O)(F)=NC(=O)c2ccc(C(=O)N=S(=O)(Oc3ccccc3CNCCNCc3ccccc3O)c3ccc(C)cc3)cc2)cc1 (centres unmarked) [3f], the ring closure, isolated yield ([1]; 22-membered ring) is reported as 87%.

Work on Cc1ccc(S(=O)(F)=NC(=O)c2ccc(C(=O)N=S(=O)(Oc3ccc(OCCOc4ccc(O)cc4)cc3)c3ccc(C)cc3)cc2)cc1 (centres unmarked) [3g] yielded a ring closure, isolated yield ([1]; 24-membered ring) of 79%.

Cc1ccc(S(=O)(F)=NC(=O)c2ccc(C(=O)N=S(=O)(Oc3ccc(OCCCCCCCCOc4ccc(O)cc4)cc3)c3ccc(C)cc3)cc2)cc1 (centres unmarked) [3h] showed a ring closure, isolated yield ([1]; 30-membered ring) of 62%.

With Cc1ccc(S(=O)(F)=NC(=O)c2ccc(Oc3ccc(C(=O)N=S(=O)(Oc4ccc(SSc5ccc(O)cc5)cc4)c4ccc(C)cc4)cc3)cc2)cc1 (centres unmarked) [3i] the ring closure, isolated yield ([1]; 27-membered ring) was 91%.

For CCC(c1ccc(O)cc1)C(CC)c1ccc(OS(=O)(=NC(=O)c2ccc(Oc3ccc(C(=O)N=S(=O)(F)c4ccc(C)cc4)cc3)cc2)c2ccc(C)cc2)cc1 (centres unmarked) [3j], the ring closure, isolated yield ([1]; 27-membered ring) was 88%.

Cc1ccc([S@](=O)(F)=NC(=O)c2ccc(Oc3ccc(C(=O)N=[S@](=O)(Oc4ccc(Cc5ccc([O-])cc5)cc4)c4ccc(C)cc4)cc3)cc2)cc1 [(R,R)-3Aa] showed a ring closure, isolated yield ([2]; 26-membered ring) of 12%.

In the case of Cc1ccc([S@](=O)(F)=NC(=O)c2ccc(Oc3ccc(C(=O)N=[S@](=O)(Oc4ccc(Oc5ccc([O-])cc5)cc4)c4ccc(C)cc4)cc3)cc2)cc1 [(R,R)-3Ab], the ring closure, isolated yield ([2]; 26-membered ring) is reported as 10%.

Work on Cc1ccc([S@](=O)(F)=NC(=O)c2ccc(Oc3ccc(C(=O)N=[S@](=O)(Oc4ccc(C(C)(C)c5ccc([O-])cc5)cc4)c4ccc(C)cc4)cc3)cc2)cc1 [(R,R)-3Ac] yielded a ring closure, isolated yield ([2]; 26-membered ring) of 14%.

In the case of Cc1ccc([S@](=O)(F)=NC(=O)c2ccc(Oc3ccc(C(=O)N=[S@](=O)(Oc4ccc(C(c5ccc([O-])cc5)(C(F)(F)F)C(F)(F)F)cc4)c4ccc(C)cc4)cc3)cc2)cc1 [(R,R)-3Ad], the ring closure, isolated yield ([2]; 26-membered ring) is reported as 12%.

Cc1ccc([S@](=O)(F)=NC(=O)c2ccc(C(=O)N=[S@](=O)(Oc3ccc(C(C)(C)c4cccc(C(C)(C)c5ccc([O-])cc5)c4)cc3)c3ccc(C)cc3)cc2)cc1 [(R,R)-3c] showed a ring closure, isolated yield ([2]; 25-membered ring) of 35%.

In the case of Cc1ccc([S@](=O)(F)=NC(=O)c2ccc(Oc3ccc(C(=O)N=[S@](=O)(Oc4ccc(C(C)(C)c5cccc(C(C)(C)c6ccc([O-])cc6)c5)cc4)c4ccc(C)cc4)cc3)cc2)cc1 [(R,R)-3o (diphenyl ether)], the ring closure, isolated yield ([2]; 30-membered ring) is reported as 65%.

Cc1ccc([S@](=O)(F)=NC(=O)c2ccc(C(=O)N=[S@](=O)(Oc3ccc(Cc4ccc([O-])cc4)cc3)c3ccc(C)cc3)cc2)cc1 [(R,R)-3u] showed a ring closure, isolated yield ([2]; 21-membered ring) of 42%.

Compound Cc1ccc([S@](=O)(F)=NC(=O)c2ccc(C(=O)N=[S@](=O)(Oc3ccc(Oc4ccc([O-])cc4)cc3)c3ccc(C)cc3)cc2)cc1 [(R,R)-3v] has a ring closure, isolated yield ([2]; 21-membered ring) of 26%.

Cc1ccc([S@](=O)(F)=NC(=O)c2ccc(C(=O)N=[S@](=O)(Oc3ccc(C(C)(C)c4ccc([O-])cc4)cc3)c3ccc(C)cc3)cc2)cc1 [(R,R)-3w] showed a ring closure, isolated yield ([2]; 21-membered ring) of 54%.

With Cc1ccc([S@](=O)(F)=NC(=O)c2ccc(C(=O)N=[S@](=O)(Oc3ccc(C(c4ccc([O-])cc4)(C(F)(F)F)C(F)(F)F)cc3)c3ccc(C)cc3)cc2)cc1 [(R,R)-3x] the ring closure, isolated yield ([2]; 21-membered ring) was 35%.

In the case of Cc1ccc([S@](=O)(F)=NC(=O)c2ccc(-c3ccc(C(=O)N=[S@](=O)(Oc4ccc(C(C)(C)c5cccc(C(C)(C)c6ccc([O-])cc6)c5)cc4)c4ccc(C)cc4)cc3)cc2)cc1 [(R,R)-3y], the ring closure, isolated yield ([2]; 29-membered ring) is reported as 27%.

Compound Cc1ccc([S@@](=O)(F)=NC(=O)c2ccc(Oc3ccc(C(=O)N=[S@@](=O)(Oc4ccc(Cc5ccc([O-])cc5)cc4)c4ccc(C)cc4)cc3)cc2)cc1 [(S,S)-3Aa] has a ring closure, isolated yield ([2]; 26-membered ring) of 12%.

Cc1ccc([S@@](=O)(F)=NC(=O)c2ccc(Oc3ccc(C(=O)N=[S@@](=O)(Oc4ccc(Oc5ccc([O-])cc5)cc4)c4ccc(C)cc4)cc3)cc2)cc1 [(S,S)-3Ab] showed a ring closure, isolated yield ([2]; 26-membered ring) of 14%.

Cc1ccc([S@@](=O)(F)=NC(=O)c2ccc(Oc3ccc(C(=O)N=[S@@](=O)(Oc4ccc(C(C)(C)c5ccc([O-])cc5)cc4)c4ccc(C)cc4)cc3)cc2)cc1 [(S,S)-3Ac] gave a ring closure, isolated yield ([2]; 26-membered ring) of 16%.

With Cc1ccc([S@@](=O)(F)=NC(=O)c2ccc(Oc3ccc(C(=O)N=[S@@](=O)(Oc4ccc(C(c5ccc([O-])cc5)(C(F)(F)F)C(F)(F)F)cc4)c4ccc(C)cc4)cc3)cc2)cc1 [(S,S)-3Ad] the ring closure, isolated yield ([2]; 26-membered ring) was 20%.

Work on Cc1ccc([S@@](=O)(F)=NC(=O)c2ccc(C(=O)N=[S@@](=O)(Oc3ccc(SSc4ccc([O-])cc4)cc3)c3ccc(C)cc3)cc2)cc1 [(S,S)-3a] yielded a ring closure, isolated yield ([2]; 22-membered ring) of 93%.

In the case of Cc1ccc([S@@](=O)(F)=NC(=O)c2ccc(C(=O)N=[S@@](=O)(Oc3ccc(C(C)(C)c4cccc(C(C)(C)c5ccc([O-])cc5)c4)cc3)c3ccc(C)cc3)cc2)cc1 [(S,S)-3c], the ring closure, isolated yield ([2]; 25-membered ring) is reported as 42%.

Work on Cc1ccc([S@@](=O)(F)=NC(=O)c2ccc(C(=O)N=[S@@](=O)(Oc3cccc(Oc4cccc(Oc5cccc([O-])c5)c4)c3)c3ccc(C)cc3)cc2)cc1 [(S,S)-3d] yielded a ring closure, isolated yield ([2]; 23-membered ring) of 71%.

For Cc1ccc([S@@](=O)(F)=NC(=O)c2ccc(C(=O)N=[S@@](=O)(Oc3ccccc3CNCCNCc3ccccc3[O-])c3ccc(C)cc3)cc2)cc1 [(S,S)-3f], the ring closure, isolated yield ([2]; 22-membered ring) was 75%.

For Cc1ccc([S@@](=O)(F)=NC(=O)c2ccc(Oc3ccc(C(=O)N=[S@@](=O)(Oc4cccc(Oc5cccc(Oc6cccc([O-])c6)c5)c4)c4ccc(C)cc4)cc3)cc2)cc1 [(S,S)-3k], the ring closure, isolated yield ([2]; 28-membered ring) was 85%.

Cc1ccc([S@@](=O)(F)=NC(=O)c2ccc(Oc3ccc(C(=O)N=[S@@](=O)(Oc4ccc(C(C)(C)c5cccc(C(C)(C)c6ccc([O-])cc6)c5)cc4)c4ccc(C)cc4)cc3)cc2)cc1 [(S,S)-3o (diphenyl ether)] gave a ring closure, isolated yield ([2]; 30-membered ring) of 64%.

In the case of Cc1ccc([S@@](=O)(F)=NC(=O)c2cccc(C(=O)N=[S@@](=O)(Oc3ccc(SSc4ccc([O-])cc4)cc3)c3ccc(C)cc3)n2)cc1 [(S,S)-3r], the ring closure, isolated yield ([2]; 21-membered ring) is reported as 71%.

Compound Cc1ccc([S@@](=O)(F)=NC(=O)c2ccc(C(=O)N=[S@@](=O)(Oc3ccc(Cc4ccc([O-])cc4)cc3)c3ccc(C)cc3)cc2)cc1 [(S,S)-3u] has a ring closure, isolated yield ([2]; 21-membered ring) of 54%.

With Cc1ccc([S@@](=O)(F)=NC(=O)c2ccc(C(=O)N=[S@@](=O)(Oc3ccc(Oc4ccc([O-])cc4)cc3)c3ccc(C)cc3)cc2)cc1 [(S,S)-3v] the ring closure, isolated yield ([2]; 21-membered ring) was 34%.

Work on Cc1ccc([S@@](=O)(F)=NC(=O)c2ccc(C(=O)N=[S@@](=O)(Oc3ccc(C(C)(C)c4ccc([O-])cc4)cc3)c3ccc(C)cc3)cc2)cc1 [(S,S)-3w] yielded a ring closure, isolated yield ([2]; 21-membered ring) of 62%.

Compound Cc1ccc([S@@](=O)(F)=NC(=O)c2ccc(C(=O)N=[S@@](=O)(Oc3ccc(C(c4ccc([O-])cc4)(C(F)(F)F)C(F)(F)F)cc3)c3ccc(C)cc3)cc2)cc1 [(S,S)-3x] has a ring closure, isolated yield ([2]; 21-membered ring) of 33%.

Work on Cc1ccc([S@@](=O)(F)=NC(=O)c2ccc(-c3ccc(C(=O)N=[S@@](=O)(Oc4ccc(C(C)(C)c5cccc(C(C)(C)c6ccc([O-])cc6)c5)cc4)c4ccc(C)cc4)cc3)cc2)cc1 [(S,S)-3y] yielded a ring closure, isolated yield ([2]; 29-membered ring) of 37%.

With Cc1ccc([S@@](=O)(F)=NC(=O)c2ccc(-c3ccc(C(=O)N=[S@@](=O)(Oc4ccc(Cc5ccc([O-])cc5)cc4)c4ccc(C)cc4)cc3)cc2)cc1 [[1+1] of 4f (not observed)] the ring closure, isolated yield ([2]; 25-membered ring) was 0%.

Cc1ccc([S@@](=O)(F)=NC(=O)c2ccc(-c3ccc(C(=O)N=[S@@](=O)(Oc4ccc(Oc5ccc([O-])cc5)cc4)c4ccc(C)cc4)cc3)cc2)cc1 [[1+1] of 4g (not observed)] gave a ring closure, isolated yield ([2]; 25-membered ring) of 0%.

Compound Cc1ccc([S@@](=O)(F)=NC(=O)c2ccc(-c3ccc(C(=O)N=[S@@](=O)(Oc4ccc(C(C)(C)c5ccc([O-])cc5)cc4)c4ccc(C)cc4)cc3)cc2)cc1 [[1+1] of 4i (not observed)] has a ring closure, isolated yield ([2]; 25-membered ring) of 0%.

With Cc1ccc([S@@](=O)(F)=NC(=O)c2ccc(-c3ccc(C(=O)N=[S@@](=O)(Oc4ccc(C(c5ccc([O-])cc5)(C(F)(F)F)C(F)(F)F)cc4)c4ccc(C)cc4)cc3)cc2)cc1 [[1+1] of 4j (not observed)] the ring closure, isolated yield ([2]; 25-membered ring) was 0%.

From publication PMC10660663
